Experimental data: patent EP2766361B1, “8-CARBAMOYL-2-(2,3-DISUBSTITUTED PYRID-6-YL)-1,2,3,4-TETRAHYDROISOQUINOLINE DERIVATIVES AS APOPTOSIS-INDUCING AGENTS FOR THE TREATMENT OF CANCER AND IMMUNE AND AUTOIMMUNE DISEASES” (priority 2011, dated 2013)

Test system: mouse FL5.12 cells transfected with Bcl-xL
Assay: FL5.12 cellular assay (cell viability, CellTiter-Glo)
Assay type: cell-based
Conditions: IL-3-depleted, 3% FBS assay media, 24 hours, read-out: FL5.12 Bcl-xL, -IL3, EC50
Method: Cell viability was assayed using the CellTiter-Glo assay (Promega Corp., Madison, WI) according to the manufacturer instructions. Individual determinations were the result of duplicate values. […] Table 2. In Vitro Data

SMILES | EC50 [nM]
Cc1c(-c2ccc(N3CCc4cccc(C(=O)Nc5nc6ccccc6s5)c4C3)nc2C(=O)O)nnn1CC12CC3CC(CC(C3)C1)C2 [Example 57, 6-[8-(1,3-benzothiazol-2-ylcarbamoyl)-3,4-dihydroisoquinolin-2(1H)-yl]-3-[5-methyl-1-(tricyclo[3.3.1.1^3,7]dec-1-ylmethyl)-1H-1,2,3-triazol-4-yl]pyridine-2-carboxylic acid] | 12
CC12CC3CC(C)(C1)CC(Cn1cc(-c4ccc(N5CCc6cccc(C(=O)Nc7nc8ccccc8s7)c6C5)nc4C(=O)O)cn1)(C3)C2 [Example 5, 6-[8-(1,3-benzothiazol-2-ylcarbamoyl)-3,4-dihydroisoquinolin-2(1H)-yl]-3-(1-{[3,5-dimethyltricyclo[3.3.1.1^3,7]dec-1-yl]methyl}-1H-pyrazol-4-yl)pyridine-2-carboxylic acid] | 2
N#Cc1c(-c2ccc(N3CCc4cccc(C(=O)Nc5nc6ccccc6s5)c4C3)nc2C(=O)O)cccc1S(=O)(=O)C12CC3CC(CC(C3)C1)C2 [Example 60, 6-[8-(1,3-benzothiazol-2-ylcarbamoyl)-3,4-dihydroisoquinolin-2(1H)-yl]-3-[2-cyano-3-(tricyclo[3.3.1.1^3,7]dec-1-ylsulfonyl)phenyl]pyridine-2-carboxylic acid] | 55
COCCC1(Cn2cc(-c3ccc(N4CCc5cccc(C(=O)Nc6nc7ccccc7s6)c5C4)nc3C(=O)O)cn2)C2CC3CC(C2)CC1C3 (stereo not drawn) [Example 56, 6-[8-(1,3-benzothiazol-2-ylcarbamoyl)-3,4-dihydroisoquinolin-2(1H)-yl]-3-(1-{[2-(2-methoxyethyl)tricyclo[3.3.1.1^3,7]dec-2-yl]methyl}-1H-pyrazol-4-yl)pyridine-2-carboxylic acid] | 17
Cc1c(-c2ccc(N3CCc4cccc(C(=O)Nc5nc6ccccc6s5)c4C3)nc2C(=O)O)cnn1CC12CC3CC(C1)CC(OCC1CCOCC1)(C3)C2 [Example 53, 6-[8-(1,3-benzothiazol-2-ylcarbamoyl)-3,4-dihydroisoquinolin-2(1H)-yl]-3-(5-methyl-1-{[3-(tetrahydro-2H-pyran-4-ylmethoxy)tricyclo[3.3.1.1^3,7]dec-1-yl]methyl}-1H-pyrazol-4-yl)pyridine-2-carboxylic acid] | 4
Cc1c(-c2ccc(N3CCc4cccc(C(=O)Nc5cn6ncccc6n5)c4C3)nc2C(=O)O)cnn1CC12CC3CC(CC(C3)C1)C2 [Example 77, 6-[8-(imidazo[1,2-b]pyridazin-2-ylcarbamoyl)-3,4-dihydroisoquinolin-2(1H)-yl]-3-[5-methyl-1-(tricyclo[3.3.1.1^3,7]dec-1-ylmethyl)-1H-pyrazol-4-yl]pyridine-2-carboxylic acid] | 4
Cc1c(C(=O)NC23CC4CC(CC(C4)C2)C3)cccc1-c1ccc(N2CCc3cccc(C(=O)Nc4nc5ccccc5s4)c3C2)nc1C(=O)O [Example 54, 6-[8-(1,3-benzothiazol-2-ylcarbamoyl)-3,4-dihydroisoquinolin-2(1H)-yl]-3-{2-methyl-3-[tricyclo[3.3.1.1^3,7]dec-1-ylcarbamoyl]phenyl}pyridine-2-carboxylic acid] | > 1000
[2H]C1([2H])c2c(cccc2C(=O)Nc2nc3ccccc3s2)CCN1c1ccc(-c2cnn(CC34CC5CC(CC(C5)C3)C4)c2C)c(C(=O)O)n1 [Example 44, 6-[8-(1,3-benzothiazol-2-ylcarbamoyl)-1,1-dideutero-3,4-dihydroisoquinolin-2(1H)-yl]-3-[5-methyl-1-(tricyclo[3.3.1.1^3,7]dec-1-ylmethyl)-1H-pyrazol-4-yl]pyridine-2-carboxylic acid] | 0.3
Cc1c(-c2ccc(N3CCc4cccc(C(=O)Nc5nc6ccccc6s5)c4C3)nc2C(=O)O)ccnc1OCC12CC3CC(CC(C3)C1)C2 [Example 27, 6-[8-(1,3-benzothiazol-2-ylcarbamoyl)-3,4-dihydroisoquinolin-2(1H)-yl]-3'-methyl-2'-(tricyclo[3.3.1.1^3,7]dec-1-ylmethoxy)-3,4'-bipyridine-2-carboxylic acid] | 214
COCCOCCOCCOC12CC3CC(CC(Cn4ncc(-c5ccc(N6CCc7cccc(C(=O)Nc8nc9ccccc9s8)c7C6)nc5C(=O)O)c4C)(C3)C1)C2 [Example 80, 6-[8-(1,3-benzothiazol-2-ylcarbamoyl)-3,4-dihydroisoquinolin-2(1H)-yl]-3-(1-{[3-{2-[2-(2-methoxyethoxy)ethoxy]ethoxy}tricyclo[3.3.1.1^3,7]dec-1-yl]methyl}-5-methyl-1H-pyrazol-4-yl)pyridine-2-carboxylic acid] | 1
Cc1c(-c2ccc(N3CCc4cccc(C(=O)Nc5nc6ccccc6s5)c4C3)nc2C(=O)NS(=O)(=O)C2CC2)cc(C#N)n1CC12CC3CC(CC(C3)C1)C2 [Example 36, N-(1,3-benzothiazol-2-yl)-2-{5-[5-cyano-2-methyl-1-(tricyclo[3.3.1.1^3,7]dec-1-ylmethyl)-1H-pyrrol-3-yl]-6-[(cyclopropylsulfonyl)carbamoyl]pyridin-2-yl}-1,2,3,4-tetrahydroisoquinoline-8-carboxamide] | 0.8
Cc1c(C(=O)N(C)C2C3CC4CC(C3)CC2C4)cccc1-c1ccc(N2CCc3cccc(C(=O)Nc4nc5ccccc5s4)c3C2)nc1C(=O)O (stereo not drawn) [Example 64] | 26
O=C(Nc1nc2ccccc2s1)c1cccc2c1CN(c1ccc(-c3cnn(CC45CC6CC(C4)CC(N4CCOCC4)(C6)C5)c3)c(C(=O)O)n1)CC2 [Example 15, 6-[8-(1,3-benzothiazol-2-ylcarbamoyl)-3,4-dihydroisoquinolin-2(1H)-yl]-3-(1-{[3-(morpholin-4-yl)tricyclo[3.3.1.1^3,7]dec-1-yl]methyl}-1H-pyrazol-4-yl)pyridine-2-carboxylic acid] | 110
O=C(Nc1nc2ccccc2s1)c1cccc2c1CN(c1ccc(-c3cnn(CC45CC6CC(CC(O)(C6)C4)C5)c3)c(C(=O)O)n1)CC2 [Example 6, 6-[8-(1,3-benzothiazol-2-ylcarbamoyl)-3,4-dihydroisoquinolin-2(1H)-yl]-3-(1-{[3-hydroxytricyclo[3.3.1.1^3,7]dec-1-yl]methyl}-1H-pyrazol-4-yl)pyridine-2-carboxylic acid] | 146
Cc1c(-c2ccc(N3CCc4cccc(C(=O)Nc5nc6ccccc6s5)c4C3)nc2C(=O)O)ccnc1SC12CC3CC(CC(C3)C1)C2 [Example 74, 6-[8-(1,3-benzothiazol-2-ylcarbamoyl)-3,4-dihydroisoquinolin-2(1H)-yl]-3'-methyl-2'-(tricyclo[3.3.1.1^3,7]dec-1-ylsulfanyl)-3,4'-bipyridine-2-carboxylic acid] | 7
Cc1c(-c2ccc(N3Cc4c(C(=O)Nc5nc6ccccc6s5)cccc4C(C)(C)C3)nc2C(=O)O)cnn1CC12CC3CC(CC(C3)C1)C2 [Example 14, 6-[8-(1,3-benzothiazol-2-ylcarbamoyl)-4,4-dimethyl-3,4-dihydroisoquinolin-2(1H)-yl]-3-[5-methyl-1-(tricyclo[3.3.1.1^3,^7]dec-1-ylmethyl)-1H-pyrazol-4-yl]pyridine-2-carboxylic acid] | < 1
COC12CC3CC(CC(Cn4ncc(-c5ccc(N6CCc7cccc(C(=O)Nc8nc9ccccc9s8)c7C6)nc5C(=O)NS(=O)(=O)C5CC5)c4C)(C3)C1)C2 [Example 41] | 0.4
N#Cc1c(SC23CC4CC(CC(C4)C2)C3)cccc1-c1ccc(N2CCc3cccc(C(=O)Nc4nc5ccccc5s4)c3C2)nc1C(=O)O [Example 48, 6-[8-(1,3-benzothiazol-2-ylcarbamoyl)-3,4-dihydroisoquinolin-2(1H)-yl]-3-{2-cyano-3-[tricyclo[3.3.1.1^3,7]dec-1-ylsulfanyl]phenyl}pyridine-2-carboxylic acid] | 8
Cc1c(-c2ccc(N3CCc4cccc(C(=O)Nc5nc6ccccc6s5)c4C3)nc2C(=O)O)ccnc1NC12CC3CC(CC(C3)C1)C2 [Example 76, 6-[8-(1,3-benzothiazol-2-ylcarbamoyl)-3,4-dihydroisoquinolin-2(1H)-yl]-3'-methyl-2'-(tricyclo[3.3.1.1^3,7]dec-1-ylamino)-3,4'-bipyridine-2-carboxylic acid] | 71
O=C(Nc1nc2ccccc2s1)c1cccc2c1CN(c1ccc(-c3cnn(CC4CCC5(CCC5)CC4)c3)c(C(=O)O)n1)CC2 [Example 4, 6-[8-(1,3-benzothiazol-2-ylcarbamoyl)-3,4-dihydroisoquinolin-2(1H)-yl]-3-[1-(spiro[3.5]non-7-ylmethyl)-1H-pyrazol-4-yl]pyridine-2-carboxylic acid] | 918
Cc1c(-c2ccc(N3CCc4cccc(C(=O)Nc5nc6cccnc6s5)c4C3)nc2C(=O)NS(C)(=O)=O)cnn1CC12CC3CC(CC(C3)C1)C2 [Example 75, 2-{6-[(methylsulfonyl)carbamoyl]-5-[5-methyl-1-(tricyclo[3.3.1.1^3,7]dec-1-ylmethyl)-1H-pyrazol-4-yl]pyridin-2-yl}-N-([1,3]thiazolo[5,4-b]pyridin-2-yl)-1,2,3,4-tetrahydroisoquinoline-8-carboxamide] | 3
Cc1c(-c2ccc(N3CCc4cccc(C(=O)Nc5nc6ccccc6s5)c4C3)nc2C(=O)O)cccc1S(=O)(=O)NC12CC3CC(CC(C3)C1)C2 [Example 51, 6-[8-(1,3-benzothiazol-2-ylcarbamoyl)-3,4-dihydroisoquinolin-2(1H)-yl]-3-{2-methyl-3-[tricyclo[3.3.1.1^3,7]dec-1-ylsulfamoyl]phenyl}pyridine-2-carboxylic acid] | 164
N#Cc1c(-c2ccc(N3CCc4cccc(C(=O)Nc5nc6ccccc6s5)c4C3)nc2C(=O)O)cnn1CC12CC3CC(CC(C3)C1)C2 [Example 29, 6-[8-(1,3-benzothiazol-2-ylcarbamoyl)-3,4-dihydroisoquinolin-2(1H)-yl]-3-{5-cyano-1-[tricyclo[3.3.1.1^3,7]dec-1-ylmethyl]-1H-pyrazol-4-yl}pyridine-2-carboxylic acid] | 3
COC12CC3(C)CC(C)(CC(Cn4ncc(-c5ccc(N6CCc7cccc(C(=O)Nc8nc9ccccc9s8)c7C6)nc5C(=O)O)c4C)(C3)C1)C2 [Example 38, 6-[8-(1,3-benzothiazol-2-ylcarbamoyl)-3,4-dihydroisoquinolin-2(1H)-yl]-3-(1-{[3-methoxy-5,7-dimethyltricyclo[3.3.1.1^3,7]dec-1-yl]methyl}-5-methyl-1H-pyrazol-4-yl)pyridine-2-carboxylic acid] | 0.1
